From article PMC6792352, “Limited Chemical Structural Diversity Found to Modulate Thyroid Hormone Receptor in the Tox21 Chemical Library” (Environmental Health Perspectives, 2019)
Where a name gives a salt, the structure may show the parent alone. Non-standard residues stand in square brackets, D forms with d. Residues, ends and D or L forms follow the SMILES beside them. pGlu = O=C1CC[C@@H](C(=O)O)N1

Assay: in vitro
Settings: rat, gh3-tre-luc cells, AC50 (uM) modified / 1000

Row | SMILES | CC50 at 24 h [µM]
1 | O=C=Nc1ccc(Cl)c(Cl)c1 [3,4-Dichlorophenyl isocyanate] | > 90
2 | COc1cc([C@@H]2c3cc4c(cc3[C@@H](O[C@@H]3O[C@@H]5CO[C@@H](C)O[C@H]5[C@H](O)[C@H]3O)[C@H]3COC(=O)[C@H]23)OCO4)cc(OC)c1OP(=O)(O)O [Etoposide phosphate] | > 50
3 | Fc1ccc(Br)cc1 [1-Bromo-4-fluorobenzene] | > 90
4 | O=C1CCCN1CCO [1-(2-Hydroxyethyl)pyrrolidin-2-one] | > 90
5 | CCCCCCC(O)CO (stereo not shown) [1,2-Octanediol] | > 90
6 | CC(C)c1ccc(C=O)cc1 [4-Isopropylbenzaldehyde] | > 90
7 | CCN1CCCC1CNC(=O)c1cc(S(=O)(=O)CC)ccc1OC (stereo not shown) [Sultopride hydrochloride] | > 50
8 | O=S1OCCO1 [Glycol sulfite] | > 100
9 | CCCCCCCCCCCCCCCC(=O)OC[C@@H](O)[C@H]1OC[C@H](O)[C@H]1O [Sorbitan monohexadecanoate] | > 50
10 | CC(O)(CS(=O)(=O)c1ccc(F)cc1)C(=O)Nc1ccc(C#N)c(C(F)(F)F)c1 (stereo not shown) [Bicalutamide] | > 50
11 | C1CCC2CCCCC2C1 (stereo not shown) [Decalin] | > 90
12 | O=P1(N(CCCl)CCCl)NCCCO1 (stereo not shown) [Cyclophosphamide monohydrate] | > 90
13 | CC(=O)OCC(=O)[C@@]1(O)CC[C@H]2[C@@H]3CCC4=CC(=O)C=C[C@]4(C)[C@H]3[C@@H](O)C[C@@]21C [Prednisolone acetate] | > 50
14 | COc1cccc(C(=O)CCN[C@@H](C)[C@H](O)c2ccccc2)c1 [l-Oxyfedrine hydrochloride] | 13.4
15 | CNC(=S)NC [N,N'-Dimethylthiourea] | > 90
16 | COc1ccc(O)c(C(C)(C)C)c1 [Butylated hydroxyanisole] | > 90
17 | Fc1ccc(C(OCCN2CCN(CCCc3ccccc3)CC2)c2ccc(F)cc2)cc1 [GBR 12909 dihydrochloride] | 8.65
18 | CC1(C)S[C@@H]2[C@H](NC(=O)[C@H](N)c3ccc(O)cc3)C(=O)N2[C@H]1C(=O)O [Amoxicillin] | > 50
19 | OCCN1CCNCC1 [1-Piperazineethanol] | > 90
20 | C[C@]12CC[C@H]3[C@@H](CCC4=CC(=O)CC[C@@H]43)[C@@H]1CC[C@@H]2OC(=O)CCc1ccccc1 [Nandrolone phenpropionate] | > 50
21 | Cc1cc(SCc2sc(-c3ccc(C(F)(F)F)c(F)c3)nc2C)ccc1OCC(=O)O [{4-[({2-[3-Fluoro-4-(trifluoromethyl)phenyl]-4-methyl-1,3-thiazol-5-yl}methyl)sulfanyl]-2-methylphenoxy}acetic acid] | 64.8
22 | CC(C)c1cccc(C(C)C)c1N [2,6-Diisopropylaniline] | > 90
23 | Nc1ccc([N+](=O)[O-])cc1O [2-Amino-5-nitrophenol] | 82.7

Row | SMILES | CC50 at 24 h [µM]
24 | COC(=O)N/N=C/c1c[n+]([O-])c2ccccc2[n+]1[O-] [Carbadox] | > 50
25 | CCCCCCCCCCO [1-Decanol] | > 90
26 | CC/C=C\C#N [(2Z)-2-Pentenenitrile] | > 90
27 | C=C(C)[C@@H]1CCC2=CC(=O)C[C@@H](C)[C@]2(C)C1 [Nootkatone] | > 90
28 | C[N+](C)(C)CC(=O)O [Betaine monohydrate] | > 90
29 | Nc1ccc(O)c([N+](=O)[O-])c1 [4-Amino-2-nitrophenol] | > 90
30 | CCC(C)(C)C1CCC(OC)CC1 (stereo not shown) [1-Methoxy-4-tert-pentylcyclohexane] | > 90
31 | CCCCCCCCCCC(CO)CCCCCCCC (stereo not shown) [2-Octyl-1-dodecanol] | > 90
32 | Cc1ccccc1N1C(=O)c2cc(S(N)(=O)=O)c(Cl)cc2NC1C (stereo not shown) [Metolazone] | > 50
33 | C=CC(=O)OCC[N+](C)(C)C [2-(Dimethylamino)ethyl acrylate methochloride] | > 90
34 | ClC(Cl)Cl [Chloroform] | > 90
35 | Cc1cc(S(=O)(=O)O)c(N)cc1Cl [2-Amino-4-chloro-5-methylbenzenesulfonic acid] | > 90
36 | CCN(CCO)CCCC(C)Nc1ccnc2cc(Cl)ccc12 (stereo not shown) [Hydroxychloroquine sulfate] | > 50
37 | Cc1ccc2ncccc2c1 [6-Methylquinoline] | > 90
38 | Nc1ccc2cc3ccc(N)cc3nc2c1 [Proflavin hydrochloride] | > 90
39 | O=[N+]([O-])c1ccc(NCCO)c(OCCO)c1 [HC Yellow 4] | 58.6
40 | O=CC=O [Glyoxal] | > 90
41 | C[C@H]1O[C@@H](O[C@H]2[C@@H](O)C[C@H](O[C@H]3[C@@H](O)C[C@H](O[C@H]4CC[C@@]5(C)[C@H](CC[C@@H]6[C@@H]5C[C@@H](O)[C@]5(C)[C@@H](C7=CC(=O)OC7)CC[C@]65O)C4)O[C@@H]3C)O[C@@H]2C)C[C@H](O)[C@@H]1O [Digoxin] | > 90
42 | CN1CCN(CC/C=C2/c3ccccc3Sc3ccc(S(=O)(=O)N(C)C)cc32)CC1 [Thiothixene] | 10.7
43 | C1CC(COCC2CO2)CCC1COCC1CO1 (stereo not shown) [2,2'-[Cyclohexane-1,4-diylbis(methanediyloxymethanediyl)]dioxirane] | 59.2
44 | CCOCC(O)COc1ccc(NC(=O)CC[S+](C)C)cc1 (stereo not shown) [Suplatast tosylate] | > 50
45 | O=C1C=CCCC1 [2-Cyclohexen-1-one] | > 90
46 | FC(F)(Cl)C(F)(Cl)Cl [1,1,2-Trichloro-1,2,2-trifluoroethane] | > 90

Row | SMILES | CC50 at 24 h [µM]
47 | CN(C)CC[C@@H](c1ccc(Br)cc1)c1ccccn1 [Dexbrompheniramine maleate] | 26.6
48 | COC(=O)CC#N [Methyl cyanoacetate] | > 100
49 | NCCCC[C@H](N[C@@H](CCc1ccccc1)C(=O)O)C(=O)N1CCC[C@H]1C(=O)O [Lisinopril dihydrate] | > 20
50 | Cc1c(Cn2ccnc2)c2ccccc2n1CCC(=O)O [Dazmegrel] | > 50
51 | Cc1ccc(O)c(-n2nc3ccccc3n2)c1 [2-(2H-Benzotriazol-2-yl)-4-methylphenol] | > 90
52 | O=C(O)c1ccc(-n2nc(-c3ccccc3O)nc2-c2ccccc2O)cc1 [Deferasirox] | 41.8
53 | N#CCC(=O)O [Cyanoacetic acid] | > 90
54 | CCCOCCC [Propyl ether] | > 90
55 | C=CCCCCCCCCC=O [Undec-10-enal] | > 90
56 | Nn1cnnc1 [4-Amino-1,2,4-triazole] | > 90
57 | CN=C(N)NC(=O)Nc1c(C)cccc1C [Lidamidine] | > 50
58 | CCC(C)N (stereo not shown) [2-Butanamine] | > 90
59 | CC(=O)Nc1ccc(O)cc1 [Acetaminophen] | > 50
60 | C[N+](C)(C)CCO [Cholin acetate] | > 50
61 | CC(=O)CCC(C)=O [2,5-Hexanedione] | > 90
62 | Oc1ccccc1Cl [2-Chlorophenol] | > 90
63 | CCC(CO)(CO)CO [2-Ethyl-2-(hydroxymethyl)-1,3-propanediol] | > 100
64 | CC(C)c1ccc(NC(=O)N(C)C)cc1 [Isoproturon] | > 90
65 | COS(C)(=O)=O [Methyl methanesulfonate] | > 100
66 | Cc1ccc(S(=O)(=O)NC2CCCCC2)cc1 [N-Cyclohexyl-4-methylbenzenesulfonamide] | > 90
67 | O=c1c2ccccc2oc2ccccc12 [Xanthone] | > 90
68 | CCN(CC)c1ccc(N)cc1 [N,N-Diethylbenzene-1,4-diamine] | 64.7

Same assay, conditions: rat, gh3-tre-luc cells, AC50 (uM) modified / 1000, Tox21_110001=Tox21_111026; viability, 1 nM T3 present, 24 h

Row | SMILES | CC50 at 24 h [µM]
69 | O=C1CCO1 [beta-Propiolactone] | > 50

Same assay, conditions: rat, gh3-tre-luc cells, AC50 (uM) modified / 1000, Tox21_110001=Tox21_111863; viability, 1 nM T3 present, 24 h

Row | SMILES | CC50 at 24 h [µM]
70 | CCCCCCCCCC(=O)O[C@H]1CC[C@H]2[C@@H]3CCC4=CC(=O)CC[C@]4(C)[C@H]3CC[C@]12C [Testosterone decanoate] | > 50

Same assay, conditions: rat, gh3-tre-luc cells, AC50 (uM) modified / 1000, Tox21_110001=Tox21_112815; viability, 1 nM T3 present, 24 h

Row | SMILES | CC50 at 24 h [µM]
71 | CC[C@H](C)[C@H](NC(=O)[C@H](Cc1ccccc1)NC(=O)[C@H](C)NC(=O)[C@H](CC(=O)O)NC(=O)[C@H](CCCCN)NC(=O)[C@H](CO)NC(=O)[C@@H]1CCCN1C(=O)[C@@H]1CCC(=O)N1)C(=O)NCC(=O)N[C@@H](CC(C)C)C(=O)N[C@@H](CCSC)C(N)=O [Eledoisin] ([pGlu]PSKDAFIGLM-NH2) | > 50

Same assay, conditions: rat, gh3-tre-luc cells, AC50 (uM) modified / 1000, Tox21_110001=Tox21_112893; viability, 1 nM T3 present, 24 h

Row | SMILES | CC50 at 24 h [µM]
72 | CCCN(CCC)CCc1c[nH]c2ccccc12 [N,N-Dipropyltryptamine hydrochloride] | 39.8

Same assay, conditions: rat, gh3-tre-luc cells, AC50 (uM) modified / 1000, Tox21_110001=Tox21_200189; viability, 1 nM T3 present, 24 h

Row | SMILES | CC50 at 24 h [µM]
73 | BrC(Br)Br [Bromoform] | > 90

Same assay, conditions: rat, gh3-tre-luc cells, AC50 (uM) modified / 1000, Tox21_110001=Tox21_200355; viability, 1 nM T3 present, 24 h

Row | SMILES | CC50 at 24 h [µM]
74 | CCBr [Bromoethane] | > 90

Same assay, conditions: rat, gh3-tre-luc cells, AC50 (uM) modified / 1000, Tox21_110001=Tox21_200382; viability, 1 nM T3 present, 24 h

Row | SMILES | CC50 at 24 h [µM]
75 | ClCC(Br)CBr (stereo not shown) [1,2-Dibromo-3-chloropropane] | > 90

Same assay, conditions: rat, gh3-tre-luc cells, AC50 (uM) modified / 1000, Tox21_110001=Tox21_200489; viability, 1 nM T3 present, 24 h

Row | SMILES | CC50 at 24 h [µM]
76 | NNCc1ccccc1 [Benzylhydrazine dihydrochloride] | > 90

Same assay, conditions: rat, gh3-tre-luc cells, AC50 (uM) modified / 1000, Tox21_110001=Tox21_201952; viability, 1 nM T3 present, 24 h

Row | SMILES | CC50 at 24 h [µM]
77 | CC(O)CN(CC(C)O)CC(C)O (stereo not shown) [Triisopropanolamine] | > 90

Same assay, conditions: rat, gh3-tre-luc cells, AC50 (uM) modified / 1000, Tox21_110001=Tox21_300794; viability, 1 nM T3 present, 24 h

Row | SMILES | CC50 at 24 h [µM]
78 | CCOP(=S)(OCC)SC(CCl)N1C(=O)c2ccccc2C1=O (stereo not shown) [Dialifor] | > 90

Same assay, conditions: rat, gh3-tre-luc cells, AC50 (uM) modified / 1000, Tox21_110001=Tox21_300997; viability, 1 nM T3 present, 24 h

Row | SMILES | CC50 at 24 h [µM]
79 | C/C(=N\NC(=O)Nc1cc(F)cc(F)c1)c1ncccc1C(=O)O [Diflufenzopyr-sodium] | > 90
